Test system: angiogenesis genes in dermal microvascular endothelial cells
Test: Real time RT-PCR of angiogenesis gene expression during endothelial tube formation
Type: cell-based
Settings: 1 μM SM, 24 hours
Method: For gene expression studies, three independent experiments were run for each SM tested. 90.000 cells/well (6 wells/treatment) of dermal microvascular endothelial cells (Lonza, Walkersville, Md.) were seeded on polymerized GELTREX™ gel matrix (Invitrogen, Carlsbad, Calif.) in 24 well plates. Wells were immediately treated with the same volume of 1 μM SM or PBS. After 24 hours incubation at 37° C. and 5% CO2, cells were extracted using Cell Recovery Solution (BD Biosciences, San Jose, Calif., Cat. #354253). Total RNA was extracted with the RNeasy Mini Kit (Qiagen, Valencia, Calif., Cat. #74104), and retrotranscribed using […]® First-Strand reverse transcriptase (Invitrogen, Carlsbad, Calif., Cat. #11904-018). The real time PCR reactions were performed in an Opticon 2 cycler (MJ Research, Waltham, Mass.). Amplification was performed in a final volume of 25 μl, containing 2 μl cDNA (1:10 dilution from the reversed transcribed reaction) and 2 μl of primer mixture (10 μM each of forward and reverse primers). Samples were amplified as follows: after initial denaturation at 95 C for 2 minutes, reactions were run for 46 cycles at 95° C. for 30 seconds, 60° C. for 30 seconds, and 72° C. for 45 seconds. Fluorescence was measured in every cycle and a melting curve was run after the PCR by increasing temperature from 50 to 96° C. (in 0.5° C. increments). A defined single peak was obtained for all amplicons, thus confirming the specificity of the amplification.
The genes that were monitored were selected based on their relevance to the angiogenesis process. All experiments were done in triplicate. The results are shown in the volcano plots of FIG. 17. Log 2 fold-change is presented in the X-axis and log 10 P value in the Y-axis.

COC(=O)C1CC(=O)C(C(=O)OC)CC1=O (centres unmarked) [Compound 122567]
Log2 fold-change of gene expression: 1839: 1.0 | Log2 fold-change of gene expression: 4247: 0.3 | Log2 fold-change of gene expression: 5569: 0.8 | Log2 fold-change of gene expression: 8131: 0.1 | Log2 fold-change of gene expression: 9569: −2.2 | Log2 fold-change of gene expression: 10988: 1.2 | Log2 fold-change of gene expression: 23001: −0.5 | Log2 fold-change of gene expression: 55332: −1.0 | Log2 fold-change of gene expression: 57722: 0.1 | Log2 fold-change of gene expression: 58488: 1.5 | Log2 fold-change of gene expression: 90780: −1.9 | Log2 fold-change of gene expression: 134265: −0.2 | Log2 fold-change of gene expression: AKT1: −1.6 | Log2 fold-change of gene expression: ANGPT1: 1.6 | Log2 fold-change of gene expression: ANGPT2: −0.9 | Log2 fold-change of gene expression: ANGPTL3: −1.7 | Log2 fold-change of gene expression: ANGPTL4: −0.4 | Log2 fold-change of gene expression: ANPEP: −1.2 | Log2 fold-change of gene expression: ANTXR1: −3.5 | Log2 fold-change of gene expression: APOE: 0.8 | Log2 fold-change of gene expression: ARHGEF1: −5.0 | Log2 fold-change of gene expression: Acvrl1: −1.3 | Log2 fold-change of gene expression: Adcy4: −0.4 | Log2 fold-change of gene expression: BAL1: 0.2 | Log2 fold-change of gene expression: BMP1: 0.9 | Log2 fold-change of gene expression: C1orf54: −3.4 | Log2 fold-change of gene expression: CALD1: 2.3 | Log2 fold-change of gene expression: CCL2: 2.5 | Log2 fold-change of gene expression: CCL11: 0.6 | Log2 fold-change of gene expression: CD248: 1.2 | Log2 fold-change of gene expression: CDH5: −1.9 | Log2 fold-change of gene expression: CENTD3: 1.1 | Log2 fold-change of gene expression: CLIC1: 0.9 | Log2 fold-change of gene expression: COL4A3: 1.9 | Log2 fold-change of gene expression: COL18A1: 1.6 | Log2 fold-change of gene expression: COMT: −1.5 | Log2 fold-change of gene expression: CST4: 1.3 | Log2 fold-change of gene expression: CTTNBP2NL: −0.9 | Log2 fold-change of gene expression: CXCL3: 4.0 | Log2 fold-change of gene expression: CXCL5: 4.3 | Log2 fold-change of gene expression: CXCL6: 1.1 | Log2 fold-change of gene expression: CXCL9: 1.6 | Log2 fold-change of gene expression: CXCL10: 3.7 | Log2 fold-change of gene expression: Calcr1: −4.0 | Log2 fold-change of gene expression: Caskin2: −2.3 | Log2 fold-change of gene expression: Ccbp2: 1.4 | Log2 fold-change of gene expression: Cldn5: 0.0 | Log2 fold-change of gene expression: DGKG: 2.0 | Log2 fold-change of gene expression: DKK3: −1.9 | Log2 fold-change of gene expression: DLL4: −8.7 | Log2 fold-change of gene expression: DUT: −1.8 | Log2 fold-change of gene expression: EFNA1: −0.3 | Log2 fold-change of gene expression: EFNA3: −0.4 | Log2 fold-change of gene expression: EFNB2: −4.0 | Log2 fold-change of gene expression: EGF: −0.3 | Log2 fold-change of gene expression: ENG: −1.7 | Log2 fold-change of gene expression: EPHB4: −0.5 | Log2 fold-change of gene expression: EREG: 1.9 | Log2 fold-change of gene expression: ESAM1: −2.9 | Log2 fold-change of gene expression: EXTL3: 0.3 | Log2 fold-change of gene expression: Egf17: −2.6 | Log2 fold-change of gene expression: Ehd4: −0.8 | Log2 fold-change of gene expression: Entpd1: −0.3 | Log2 fold-change of gene expression: Epas1: 0.9 | Log2 fold-change of gene expression: EphB1: 0.8 | Log2 fold-change of gene expression: Erg: 2.4 | Log2 fold-change of gene expression: FGF1: 1.9 | Log2 fold-change of gene expression: FGF2: −0.7 | Log2 fold-change of gene expression: FGFR3: 1.2 | Log2 fold-change of gene expression: FIGF: −0.1 | Log2 fold-change of gene expression: FLT1: −4.4 | Log2 fold-change of gene expression: Fgd5: −1.5 | Log2 fold-change of gene expression: GPCR124: −3.7 | Log2 fold-change of gene expression: GRRP1: −0.3 | Log2 fold-change of gene expression: Grp116: −2.3 | Log2 fold-change of gene expression: HAND2: 0.4 | Log2 fold-change of gene expression: HGF: 1.3 | Log2 fold-change of gene expression: HIF1A: −3.1 | Log2 fold-change of gene expression: HPSE: −8.3 | Log2 fold-change of gene expression: Hspa12b: −3.4 | Log2 fold-change of gene expression: ID1: −0.2 | Log2 fold-change of gene expression: ID3: −0.3 | Log2 fold-change of gene expression: IFNA1: 1.1 | Log2 fold-change of gene expression: IFNB1: 1.2 | Log2 fold-change of gene expression: IFNG: 8.3 | Log2 fold-change of gene expression: IGF1: −0.1 | Log2 fold-change of gene expression: IL1B: −0.1 | Log2 fold-change of gene expression: IL6: 14.4 | Log2 fold-change of gene expression: IL8: 7.4 | Log2 fold-change of gene expression: ITGAV: −2.7 | Log2 fold-change of gene expression: ITGB3: −1.4 | Log2 fold-change of gene expression: Icam1: 0.0 | Log2 fold-change of gene expression: Icam2: 0.1 | Log2 fold-change of gene expression: JAG1: 0.6 | Log2 fold-change of gene expression: KDR: −2.3 | Log2 fold-change of gene expression: Kifc1: 1.1 | Log2 fold-change of gene expression: LAMAS5: −1.1 | Log2 fold-change of gene expression: LECT1: 0.3 | Log2 fold-change of gene expression: LEP: 0.2 | Log2 fold-change of gene expression: Lasts2: 4.8 | Log2 fold-change of gene expression: Lrrk1: −0.5 | Log2 fold-change of gene expression: MDK: −0.9 | Log2 fold-change of gene expression: MMP2: 0.3 | Log2 fold-change of gene expression: MMP9: 0.9 | Log2 fold-change of gene expression: MMP11: 1.3 | Log2 fold-change of gene expression: MRC2: 0.7 | Log2 fold-change of gene expression: Mmm2: −3.5 | Log2 fold-change of gene expression: Myo1b: −2.9 | Log2 fold-change of gene expression: NID1: −6.3 | Log2 fold-change of gene expression: NM023516: 0.2 | Log2 fold-change of gene expression: NRP1: −3.0 | Log2 fold-change of gene expression: NRP2: −4.3 | Log2 fold-change of gene expression: Notch4: −1.1 | Log2 fold-change of gene expression: Npr3: 1.5 | Log2 fold-change of gene expression: PALD: −0.5 | Log2 fold-change of gene expression: PDCD2: −0.4 | Log2 fold-change of gene expression: PDGFA: −1.7 | Log2 fold-change of gene expression: PECAM1: −2.7 | Log2 fold-change of gene expression: PGF: −4.9 | Log2 fold-change of gene expression: PLAU: −0.1 | Log2 fold-change of gene expression: PLG: −1.5 | Log2 fold-change of gene expression: PNMT: 1.1 | Log2 fold-change of gene expression: PROK2: 1.3 | Log2 fold-change of gene expression: PTGS1: 0.8 | Log2 fold-change of gene expression: PTPRCAP: 0.0 | Log2 fold-change of gene expression: Pltp: 1.5 | Log2 fold-change of gene expression: Ptprb: 0.5 | Log2 fold-change of gene expression: Ptprm: −0.4 | Log2 fold-change of gene expression: RAMP2: −5.8 | Log2 fold-change of gene expression: RASD2: 0.5 | Log2 fold-change of gene expression: Rasip1: −1.2 | Log2 fold-change of gene expression: S1PR1: −0.7 | Log2 fold-change of gene expression: SERPINF1: 0.2 | Log2 fold-change of gene expression: SPHK1: 0.9 | Log2 fold-change of gene expression: STAB1: −1.7 | Log2 fold-change of gene expression: Sdc4: 0.4 | Log2 fold-change of gene expression: Sdpr: 1.6 | Log2 fold-change of gene expression: Slc43a3: 1.8 | Log2 fold-change of gene expression: Slco2a1: −0.6 | Log2 fold-change of gene expression: TEK: 0.3 | Log2 fold-change of gene expression: TGFA: 2.0 | Log2 fold-change of gene expression: TGFB1: −1.2 | Log2 fold-change of gene expression: TGFB2: 1.2 | Log2 fold-change of gene expression: TGFBR1: 1.2 | Log2 fold-change of gene expression: THBS1: 0.1 | Log2 fold-change of gene expression: THBS2: 1.2 | Log2 fold-change of gene expression: THY1: −9.4 | Log2 fold-change of gene expression: TIMP1: −1.4 | Log2 fold-change of gene expression: TIMP2: −1.4 | Log2 fold-change of gene expression: TIMP3: −4.3 | Log2 fold-change of gene expression: TNF: −0.2 | Log2 fold-change of gene expression: TNS1: 0.0 | Log2 fold-change of gene expression: TNS3: 2.0 | Log2 fold-change of gene expression: TRA2B: −1.6 | Log2 fold-change of gene expression: TYMP: −0.3 | Log2 fold-change of gene expression: VEGFA: 4.9 | Log2 fold-change of gene expression: VEGFC: 1.8 | Log2 fold-change of gene expression: VGLL4: −3.5 | Log2 fold-change of gene expression: Vwf: −3.5 | Log2 fold-change of gene expression: copa: 0.1 | Log2 fold-change of gene expression: itbp4: −1.9 | Log2 fold-change of gene expression: ralb: 0.3 | Log2 fold-change of gene expression: stard9: 0.5 | Log2 fold-change of gene expression: B2M (1st listing (r49)): 0.1 | Log2 fold-change of gene expression: HPRT1 (1st listing (r50)): 0.0 | Log2 fold-change of gene expression: RPL13A (1st listing (r51)): 0.7 | Log2 fold-change of gene expression: GADPH (1st listing (r52)): −0.7 | Log2 fold-change of gene expression: ACTB (1st listing (r53)): −1.0 | Log2 fold-change of gene expression: PLXDC1 (1st listing (r74)): 0.7 | Log2 fold-change of gene expression: TNFAIP2 (1st listing (r91)): −1.0 | Log2 fold-change of gene expression: Robo4 (1st listing (r95)): 0.0 | Log2 fold-change of gene expression: 151516 (1st listing (r134)): 1.1 | Log2 fold-change of gene expression: TNFAIP2 (2nd listing (r92)): −1.1 | Log2 fold-change of gene expression: B2M (2nd listing (r97)): −0.2 | Log2 fold-change of gene expression: HPRT1 (2nd listing (r98)): 0.0 | Log2 fold-change of gene expression: RPL13A (2nd listing (r99)): 1.2 | Log2 fold-change of gene expression: GADPH (2nd listing (r100)): −0.8 | Log2 fold-change of gene expression: ACTB (2nd listing (r101)): −1.0 | Log2 fold-change of gene expression: PLXDC1 (2nd listing (r104)): −1.7 | Log2 fold-change of gene expression: 151516 (2nd listing (r139)): 1.3 | Log2 fold-change of gene expression: Robo4 (2nd listing (r188)): 1.2 | Log2 fold-change of gene expression: B2M (3rd listing (r145)): −0.2 | Log2 fold-change of gene expression: HPRT1 (3rd listing (r146)): −0.6 | Log2 fold-change of gene expression: RPL13A (3rd listing (r147)): 0.9 | Log2 fold-change of gene expression: GADPH (3rd listing (r148)): −0.7 | Log2 fold-change of gene expression: ACTB (3rd listing (r149)): −0.5 | Log2 fold-change of gene expression: B2M (4th listing (r193)): 0.3 | Log2 fold-change of gene expression: HPRT1 (4th listing (r194)): −0.2 | Log2 fold-change of gene expression: RPL13A (4th listing (r195)): 1.3 | Log2 fold-change of gene expression: GADPH (4th listing (r196)): −2.0 | Log2 fold-change of gene expression: ACTB (4th listing (r197)): −0.1

Source: patent publication US9504729B2, “Antiangiogenic small molecules and methods of use” (The United States of America, as represented by the …, priority 2009, dated 2016)
